Read-outs that look alike come from different tables or passages of the source.
Experiments:
[1] = Krafft point (TK) determination; format: physicochemical
Protocol: (§1) Elemental analysis was conducted utilizing Vario EL cube (Elementar, Germany) calibrated on acetanilide. Mass spectra were gain by electrospray ionization mass spectroscopy (ESI–MS) (micrOTOF-Q instrument; Bruker Daltonics, Germany). The ESI–MS aparatus was operated in the positive ion mode (calibrated with the Tunemix™ mixture; Bruker Daltonics; Germany), followed by spectra analysis by the DataAnalysis 3.4 software (Bruker Daltonics, Germany)—resolution of at least 5 ppm. Proton NMR and ^13C NMR measurements were performed on a Bruker AMX-500 spectrometer, utilizing CDCl3 or DMSO-d6 as a solvent. Proton and ^13C chemical shifts (given in ppm) were calibrated to TMS (δ = 0 ppm) as an internal reference. Krafft points were measured according to procedures described in our previous studies Lamch et al.,[82]. Values of CMC for all surfactants were measured utilizing the conductometric method for the compounds’ solutions in milliQ water in the same manner as described in Kula et al.. For all spectra: ^1H NMR, ^13C NMR and ESI–MS as well as appropriate comments see Electronic Supplementary Material.

C. albicans ATCC 10231 = assay: Filamentation of Candida albicans (DIC microscopy); format: cell-based; settings: 24 h incubation, ½ MIC, 37 °C
Protocol: The culture of C. albicans ATCC 10231 was incubated in YPG medium at 28 °C for 18 h. Then the culture was centrifuged (1000 rcf, 5 min), and the resulting pellet was suspended in fresh YPG medium to obtain a culture with OD = 0.6. […] The formation of filaments was observed using a differential interference contrast microscope (Olympus BX50 DIC Microscope) after 12 and 24 h of exposure to selected surfactants on C. albicans cells. The control was a culture not exposed to gemini QAS. The experiment was performed based on a modification of the protocol of Obłąk et al. ^46.

[2] = Critical micelle concentration (CMC), conductometric method; format: physicochemical; settings: double distilled water, 25 °C
Text: Alkanoyl chlorides (dodecanoyl, tetradecanoyl and hexadecanoyl) were obtained from Sigma-Aldrich. Anhydrous lactic acid (99%, crystalline) was purchased from Alfal. All solvents were obtained from Avantor Performance Materials or Stanlab and used as received. Methanol (solvent) for counterions exchange reactions was analytical grade (Avantor Performance Materials) and was additionally dried over CaH2 prior synthesis. Deuterated solvents were from Sigma-Aldrich. CMC values of surfactants were measured conductometrically in double distilled water at 25 °C.
as §1

[3] = test system: S. cerevisiae Σ1278b ATCC 42800; assay: Cytotoxicity, alamarBlue (resazurin) assay on yeast cells; format: cell-based, Saccharomyces cerevisiae; settings: ¼ and ½ MIC
Protocol: To determine the cytotoxicity of the tested gemini QAS on yeast cells, an experiment was performed using the alamarBlue colorimetric assay to determine the metabolic activity of cells, using the modified alamarBlue Cell Viability Assay Reagent method. Enzymes of the electron transport system reduce the blue resazurin solution to resorufin, which is fluorescent pink.
The yeast culture S. cerevisiae Σ1278b was incubated at 28 °C for 16 h with shaking (100 rpm), centrifuged (1000 rcf, 5 min) and the optical density was obtained, OD = 1.0, λ = 590 nm. On a 96-well titration plate we spotted 160 μl of YPG medium, 20 μl of yeast culture and the tested gemini QAS at final concentrations of ½ and ¼ MIC. The negative control was YPG medium with resazurin solution, and the positive control was resazurin solution with yeast culture. The plates were incubated at 28 °C for 12 h. Then, 20 μl of resazurin solution (alamarBlue) was added to the wells and the plate was incubated for 4 h in the dark. After incubation, the absorbance was measured at λ = 570 nm and λ = 600 nm and the color change of the wells from blue to pink was observed. The experiment was performed in 3 repetitions.

[4] = test system: Salmonella Typhimurium TA100; settings: for Number of colonies: ± SD
Protocol: (§2) The mutagenic potential of the tested gemini QAS was determined using the Ames test[83] using Salmonella Typhimurium TA98 and Salmonella Typhimurium TA100 with defects in histidine biosynthesis. The culture of S. Typhimurium TA98 and S. Typhimurium TA100 was incubated with shaking at 37 °C for 18 h, centrifuged (3000 rpm, 5 min) and OD = 1.5 was determined, at a wavelength of λ = 590 nm. The agar was dissolved and cooled to 42 °C. […] The media were incubated for 48 h at 37 °C. The positive control for the S. Typhimurium TA98 strain was acriflavin (100 μg/ml), and for the S. Typhimurium TA100 strain, sodium azide (15 μg/ml). The negative control was the culture without tested compound and with NaCl (0,9%). After incubation, the colonies were counted and the mutagenicity index (MR) was determined—the ratio of the number of revertants resulting from the mutagenic effect of the tested compound to the number of spontaneous revertants. Experiment was performed in three repetitions.

[5] = test system: Salmonella Typhimurium TA98; assay: Mutagenicity, Ames test; settings: for Number of colonies: ± SD
Protocol: as §2

[6] = test system: C. albicans ATCC 10231 biofilm; assay: Biofilm eradication (crystal violet); format: cell-based, Candida albicans; settings: 24 h biofilm, 4 h exposure, concentration not given (tested 20–1280 µM)
Protocol: The culture of C. albicans ATCC 10231 was incubated with shaking for 18 h at 37 °C, centrifuged (1000 rcf, 5 min), and the pellet was suspended in PBS (pH 7.4) until OD = 0.8. 100 µl of the obtained culture was spotted into the wells of a 96-well plate and it was incubated at 37 °C for 24 h. After incubation, the culture was removed from the wells and rinsed with sterile distilled water. Then, 100 µl of the tested gemini QAS at concentrations of 20–1280 µM were added and incubated for 4 h at 37 °C. After this time, the compounds were removed, and the plates were rinsed with sterile distilled water and placed in an oven (60 °C, 20 min) to strengthen the formed biofilm. Then 100 µl of crystal violet (0.1%) was added and stained for 5 min. The plates were rinsed with sterile distilled water until there were no traces of purple in the rinse water, and 150 µl of washing mixture (1% SDS, 50 mmol HCl, 100% isopropanol) was added. Absorbance was measured at λ = 590 nm (BioTek 800 TS Absorbance Reader). The negative control was the medium, while the positive control was the culture wells to which the tested gemini QAS had not been added. The experiment was carried out based on a modification of the method of Obłąk et al.. The tested samples were performed in 3 repetitions.

CCCCCCCCCCCC(=O)N(CCCN(CCC[N+](C)(C)C)C(=O)CCCCCCCCCCC)CCC[N+](C)(C)C [2xC12BrG3]
TK (Krafft point) [1]: < 0 °C | Effect on production of filaments by C. albicans (C. albicans ATCC 10231; listed as Dibromides with 12-carbon hydrophobic chains): completely inhibits filament formation and cell growth | CMC [2]: 6.4*10^–5 mol/dm^3 | Cytotoxic potential towards mitochondrial metabolism of S. cerevisiae Σ1278b cells [3]: did not have cytotoxic potential | Mutagenicity ratio (MR) ([4]; TA100, ¼ MIC): 0.95 | Number of colonies ([4]; TA100, ¼ MIC): 265.0 ± 7.07 | Mutagenicity ratio (MR) ([4]; TA100, ½ MIC): 1.23 | Number of colonies ([4]; TA100, ½ MIC): 308.3 ± 6.87 | Mutagenicity ratio (MR) ([5]; TA98, ¼ MIC): 0.82 | Number of colonies ([5]; TA98, ¼ MIC): 18.7 ± 2.31 | Mutagenicity ratio (MR) ([5]; TA98, ½ MIC): 7.67 | Number of colonies ([5]; TA98, ½ MIC): 174.5 ± 9.19 | Destruction (eradication) of formed C. albicans biofilm [6]: approximately 80%

CCCCCCCCCCCC(=O)N(CCCN(CCC[N+](C)(C)C)C(=O)CCCCCCCCCCC)CCC[N+](C)(C)C [2xC12MeCO3G3, dimethyl{{3-[N-(3-{N-[3-(dimethylammonium)propyl]dodecylamido}propyl}dodecylamido}propyl}}ammonium dimethylcarbonate]
TK (Krafft point) [1]: < 0 °C | Effect on production of filaments by C. albicans (C. albicans ATCC 10231): almost completely inhibited the production of filaments | CMC [2]: 1.8*10^–4 mol/dm^3 | Cytotoxic potential towards mitochondrial metabolism of S. cerevisiae Σ1278b cells [3]: did not have cytotoxic potential | Mutagenicity ratio (MR) ([4]; TA100, ¼ MIC): 0.87 | Number of colonies ([4]; TA100, ¼ MIC): 243.0 ± 8.49 | Mutagenicity ratio (MR) ([4]; TA100, ½ MIC): 1.57 | Number of colonies ([4]; TA100, ½ MIC): 438.0 ± 2.83 | Mutagenicity ratio (MR) ([5]; TA98, ¼ MIC): 1.57 | Number of colonies ([5]; TA98, ¼ MIC): 35.8 ± 2.63 | Mutagenicity ratio (MR) ([5]; TA98, ½ MIC): 2.59 | Number of colonies ([5]; TA98, ½ MIC): 59.0 ± 2.65 | Destruction (eradication) of formed C. albicans biofilm [6]: approximately 40%

CCCCCCCCCCCCCC(=O)N(CCCN(CCC[N+](C)(C)C)C(=O)CCCCCCCCCCCCC)CCC[N+](C)(C)C [2xC14BrG3]
TK (Krafft point) [1]: < 0 °C | Effect on production of filaments by C. albicans (C. albicans ATCC 10231): had little effect on the formation of filaments | CMC [2]: 5.4*10^–6 mol/dm^3 | Cytotoxic potential towards mitochondrial metabolism of S. cerevisiae Σ1278b cells [3]: did not have cytotoxic potential | Mutagenicity ratio (MR) ([4]; TA100, ¼ MIC): 0.99 | Number of colonies ([4]; TA100, ¼ MIC): 199.0 ± 1.41 | Mutagenicity ratio (MR) ([4]; TA100, ½ MIC): 0.98 | Number of colonies ([4]; TA100, ½ MIC): 197.0 ± 0.71 | Mutagenicity ratio (MR) ([5]; TA98, ¼ MIC): 1.08 | Number of colonies ([5]; TA98, ¼ MIC): 29.7 ± 2.08 | Mutagenicity ratio (MR) ([5]; TA98, ½ MIC): 1.75 | Number of colonies ([5]; TA98, ½ MIC): 48.0 ± 2.83 | Destruction (eradication) of formed C. albicans biofilm [6]: approximately 80%

CCCCCCCCCCCCCCCC(=O)N(CCCN(CCC[N+](C)(C)C)C(=O)CCCCCCCCCCCCCCC)CCC[N+](C)(C)C [2xC16BrG3]
TK (Krafft point) [1]: ~ 5 °C | Effect on production of filaments by C. albicans (C. albicans ATCC 10231; listed as dibromides with 16-carbon alkyl chains): largely prevented the formation of filaments | CMC [2]: 4.6*10^–7 mol/dm^3 | Cytotoxic potential towards mitochondrial metabolism of S. cerevisiae Σ1278b cells [3]: did not have cytotoxic potential | Number of colonies ([4]; TA100, ¼ MIC): 380.0 ± 1.37 | Mutagenicity ratio (MR) ([4]; TA100, ½ MIC): 1.50 | Mutagenicity ratio (MR) ([5]; TA98, ¼ MIC): 1.51 | Number of colonies ([5]; TA98, ¼ MIC): 34.3 ± 5.69 | Mutagenicity ratio (MR) ([5]; TA98, ½ MIC): 1.85 | Number of colonies ([5]; TA98, ½ MIC): 42.0 ± 5.57 | Destruction (eradication) of formed C. albicans biofilm [6]: approximately 80%

CCCCCCCCCCCCCCCC(=O)N(CCCN(CCC[N+](C)(C)C)C(=O)CCCCCCCCCCCCCCC)CCC[N+](C)(C)C [2xC16LaG3]
TK (Krafft point) [1]: < 0 °C | Effect on production of filaments by C. albicans (C. albicans ATCC 10231): strongly prevented the formation of filaments | CMC [2]: 3.7*10^–7 mol/dm^3 | Cytotoxic potential towards mitochondrial metabolism of S. cerevisiae Σ1278b cells [3]: did not have cytotoxic potential | Mutagenicity ratio (MR) ([4]; TA100, ¼ MIC): 0.99 | Number of colonies ([4]; TA100, ¼ MIC): 197.7 ± 1.53 | Mutagenicity ratio (MR) ([4]; TA100, ½ MIC): 1.06 | Number of colonies ([4]; TA100, ½ MIC): 213.0 ± 4.24 | Mutagenicity ratio (MR) ([5]; TA98, ¼ MIC): 1.12 | Number of colonies ([5]; TA98, ¼ MIC): 30.7 ± 1.15 | Mutagenicity ratio (MR) ([5]; TA98, ½ MIC): 1.35 | Number of colonies ([5]; TA98, ½ MIC): 37.0 ± 3.46 | Destruction (eradication) of formed C. albicans biofilm [6]: approximately 20%

CCCCCCCCCCCCCCCC(=O)N(CCCN(CCC[N+](C)(C)C)C(=O)CCCCCCCCCCCCCCC)CCC[N+](C)(C)C [2xC16MeCO3G3, dimethyl{{3-[N-(3-{N-[3-(dimethylammonium)propyl]hexadecylamido}propyl}hexadecylamido}propyl}}ammonium dimethylcarbonate]
TK (Krafft point) [1]: ~ 5 °C | Effect on production of filaments by C. albicans (C. albicans ATCC 10231): significantly reduced their number | CMC [2]: 1.6*10^–6 mol/dm^3 | Cytotoxic potential towards mitochondrial metabolism of S. cerevisiae Σ1278b cells [3]: did not have cytotoxic potential | Mutagenicity ratio (MR) ([4]; TA100, ¼ MIC): 1.43 | Number of colonies ([4]; TA100, ¼ MIC): 398.0 ± 2.83 | Mutagenicity ratio (MR) ([4]; TA100, ½ MIC): 1.76 | Number of colonies ([4]; TA100, ½ MIC): 490.5 ± 3.54 | Mutagenicity ratio (MR) ([5]; TA98, ¼ MIC): 1.55 | Number of colonies ([5]; TA98, ¼ MIC): 35.3 ± 5.03 | Mutagenicity ratio (MR) ([5]; TA98, ½ MIC): 1.85 | Number of colonies ([5]; TA98, ½ MIC): 42.0 ± 2.16 | Destruction (eradication) of formed C. albicans biofilm [6]: approximately 80%
